Assay results reported in patent US7625872B2, “Branched immunomodulatory compounds and methods of using the same” (Dynavax Technologies Corporation, priority 2002, dated 2009).

Tested on: human PBMC cells
Experiment: human PBMC assay: IFN-γ and IFN-α in cell-free medium by ELISA
Assay type: cell-based
Settings: 24 hours; for IFN-α (pg/ml) 17240 / IFN-γ (pg/ml) 17240: donor 17240; for IFN-α (pg/ml) 17240 / IFN-γ (pg/ml) 17240 / IFN-α (pg/ml) 17241 / IFN-γ (pg/ml) 17241 / IFN-α (pg/ml) 17242 / IFN-γ (pg/ml) 17242 / IFN-α (pg/ml) 17243 / IFN-γ (pg/ml) 17243 / IFN-α (pg/ml) mean: test samples 20 μg/ml, '+ PLGA' = premixed with 100 μg/ml cPLGA; for IFN-α (pg/ml) 17240 / IFN-γ (pg/ml) 17240 / IFN-α (pg/ml) 17241 / IFN-γ (pg/ml) 17241 / IFN-α (pg/ml) 17242 / IFN-γ (pg/ml) 17242 / IFN-α (pg/ml) 17243 / IFN-γ (pg/ml) 17243: SAC 1/5000 dilution; for IFN-α (pg/ml) 17241 / IFN-γ (pg/ml) 17241: donor 17241; for IFN-α (pg/ml) 17242 / IFN-γ (pg/ml) 17242: donor 17242; for IFN-α (pg/ml) 17243 / IFN-γ (pg/ml) 17243: donor 17243; for IFN-α (pg/ml) mean: mean of 4 donors; for IFN-α +PLGA / IFN-γ +PLGA / IFN-α −PLGA / IFN-γ −PLGA: mean results (Table 4; unit in Table 3); for IFN-α +PLGA / IFN-γ +PLGA: 20 μg/ml formulated with 100 μg/ml cPLGA; for IFN-α −PLGA / IFN-γ −PLGA: compound alone, 20 μg/ml
Procedure: Peripheral blood was collected from volunteers by venipuncture using heparinized syringes. Blood was layered onto a FICOLL® (Amersham Pharmacia Biotech) cushion and centrifuged. PBMCs, located at the FICOLL® interface, were collected, then washed twice with cold phosphate buffered saline (PBS). The cells were resuspended and cultured in 48 well plates or 96-well plates at 2×10^6 cells/mL at 37° C. in RPMI 1640 with 10% heat-inactivated human AB serum plus 50 units/mL penicillin, 50 μg/mL streptomycin, 300 μg/mL glutamine, 1 mM sodium pyruvate, and 1×MEM non-essential amino acids (NEAA).
The cells were cultured in the absence of test samples, in the presence of test samples at 20 μg/ml (0.5 OD/ml), or in the presence of test samples at 20 μg/ml premixed with 100 μg/ml cationic poly(lactic acid, glycolic acid) microcarriers (cPLGA; see infra) (when used) for 24 hours. Cell-free medium was then collected from each well and assayed for IFN-γ and IFN-α concentrations. SAC (Pansorbin CalBiochem, 1/5000 dilution) was used as a positive control. SAC is Staph. aureus (cowan) cell material.
IFN-γ and IFN-α were assayed using CYTOSCREEN™ ELISA kits from BioSource International, Inc., according to the manufacturer's instructions.
Compound B07 (see Example 1, above) was tested for immunomodulatory activity in human PBMC cells as outlined in Example 9, above. For comparison purposes, the immunomodulatory activities of a variety of polynucleotides and chimeric molecules containing spacer moieties were also assayed. The syntheses and features of immunomodulatory chimeric molecules like compounds C-101, C-124, and C-125 are described in U.S. patent application Ser. No. 10/176,883 entitled, “Chimeric Immunomodulatory Compounds and Methods of Using the Same,” filed on Jun. 21, 2002, herein incorporated by reference. All nucleotide linkages and linkages between NAMs, spacer moieties and branch-point nucleosides in the listed compounds are phosphorothioate esters. HEG=hexaethylene glycol; symmetrical doubler=1,3-diamino-2-propanol; trebler=modified pentaerythritol; T-C6=2′-deoxyuridine; AHA=aminohexyl-3(E)-acrylamido linked at the C-5 position of 2′-deoxyuridine (see FIG. 1A). The compounds were each tested both alone and formulated with cPLGA (see Example 9, supra).

| Substance | IFN-α (pg/ml) 17240 | IFN-γ (pg/ml) 17240 | IFN-α (pg/ml) 17241 | IFN-γ (pg/ml) 17241 | IFN-α (pg/ml) 17242 | IFN-γ (pg/ml) 17242 | IFN-α (pg/ml) 17243 | IFN-γ (pg/ml) 17243 | IFN-α (pg/ml) mean | IFN-α +PLGA | IFN-γ +PLGA | IFN-α −PLGA | IFN-γ −PLGA |
| --- | --- | --- | --- | --- | --- | --- | --- | --- | --- | --- | --- | --- | --- |
| (5′-TAGTCAT-3′-HEG)2-symmetrical doubler-HEG-5′-TAGTCAT-3′ [M-101] | 39 pg/mL | 24 pg/mL | 30 pg/mL | 10 pg/mL | 30 pg/mL | 10 pg/mL | 30 pg/mL | 22 pg/mL | 32 pg/mL | 68 pg/mL | 92 pg/mL | 32 pg/mL | 16 pg/mL |
| (5′-TAGTCAT-HEG)3-trebler-HEG-5′-TAGTCAT-3′ [M-102] | 30 pg/mL | 34 pg/mL | 30 pg/mL | 24 pg/mL | 30 pg/mL | 10 pg/mL | 30 pg/mL | 45 pg/mL | 30 pg/mL | 85 pg/mL | 61 pg/mL | 30 pg/mL | 28 pg/mL |
| (5′-TCGACGT3′-HEG)2-(T-C6 brancher)-HEG-5′-TCGACGT-3′ [B07 (#2)] | 1046 pg/mL | 207 pg/mL | 253 pg/mL | 129 pg/mL | 1365 pg/mL | 48 pg/mL | 520 pg/mL | 158 pg/mL | 796 pg/mL | 8998 pg/mL | 1016 pg/mL | 796 pg/mL | 135 pg/mL |
| (5′-TCGACGT-3′-HEG)2-glycerol-HEG-5′-TCGACGT-3′ [C-101] | 2189 pg/mL | 237 pg/mL | 520 pg/mL | 147 pg/mL | 1071 pg/mL | 73 pg/mL | 293 pg/mL | 142 pg/mL | – | 5609 pg/mL | 1323 pg/mL | – | 150 pg/mL |
| (5′-TCGACGT-3′-HEG)2-symmetrical doubler-HEG-5′-TCGACGT-3′ [C-124] | 1048 pg/mL | 303 pg/mL | 239 pg/mL | 155 pg/mL | 1186 pg/mL | 65 pg/mL | 249 pg/mL | 142 pg/mL | 680 pg/mL | 7017 pg/mL | 2661 pg/mL | 680 pg/mL | 166 pg/mL |
| (5′-TCGACGT-3′-HEG)3-trebler-HEG-5′-TCGACGT-3′ [C-125] | 1519 pg/mL | 253 pg/mL | 67 pg/mL | 136 pg/mL | 1284 pg/mL | 85 pg/mL | 309 pg/mL | 184 pg/mL | 795 pg/mL | 6348 pg/mL | 889 pg/mL | 795 pg/mL | 165 pg/mL |
